Data as given in patent EP0212310A2, “Use of probucol in the preparation of a medicament for the treatment of heart arrhythmia” (priority 1985, dated 1987).
“And” between values parts separate entries of the source, which are not always exact repeats. Equal values may be shown once.

Key:
[1] = tested on: Patienten mit Hyperlipoproteinämie; assay: 24-hour long-term ECG: arrhythmia frequency under placebo (control) and under verum; type: in vivo
Description: Von allen 42 Patienten wurde mittels Oxfolg-Medilog II Registriergeräten ein 24-Stunden-Langzeit-EKG sowohl in der Verum- als auch in der Placebophase registriert.
Die Bänder wurden ohne Kenntnis der Therapie unter Verwendung eines Reynolds Pathfinder-Analysesytems ausgewertet, dessen Sensitivität zur Identifikation von QRS-Komplexion bei 99 %, zur Erkennung ventrikulärer Extrasystolen bei 96 % lag. Neben den normalen und extrasystolischen QRS-Komplexen wurden auch die folgenden Arrhythmieformen quantitativ erfaßt: supraventrikuläre Extrasystolen, supraventrikuläre Tachykardien, ventrikuläre Extrasystolen, R/T-Phänomene,gepaarte ventrikuläre Extrasystolen, mehrere hintereinander auftretende ventrikuläre Extrasystolen, Kammertachykardien, ventrikuläre Bigemini und Asystolien. Darüber hinaus wurden erfaßt Phasen intermittierenden Vorhofflimmerns, intermittierende Schenkelblockbilder und das Herzfrequenzverhalten.
Die stündliche Häufigkeit der verschiedenen Rhythmusstö-rungen wurden erfaßt und auf einem Computerausdruck dokumentiert. Die Analyse wurde korrigiert, indem der Vorgang jedes Mal unterbrochen wurde, wenn eine ventrikuläre Extrasystole erkannt wurde. Diese wurde dann jeweils 1 : 1 auf EKG-Papier ausgeschrieben und durch den Untersucher verifiziert. Im Falle der falsch positiven Erkennung eines Ereignisses wurde der Computerausdruck entsprechend korrigiert. Dadurch wurde die positive Korrektheit der Analyse auf 100 % gesteigert. In Tabelle 3 sind die korri gierten Ergebnisse wiedergegeben.
Bei der relativen Seltenheit komplexer tachykarder ventrikulärer Rhythmusstörungen im untersuchten Kollektiv wurde eine Bewertung des Therapieeffektes lediglich für die ventrikulären Extrasystolen vorgenommen. Hierbei ließ sich die Frage nach einem möglichen paradoxen arrhythmogenen Effekt naturgemäß für alle Patienten beantworten, die Frage nach einem antiarrhythmischen Effekt dagegen nur bei den Patienten, deren spontane Arrhythmiehäufigkeit in der Placebophase eine gewisse Häufigkeit überschritt. Hierfür wurde willkürlich eine Grenze von wenigstens einer Extrasystole/Stunde, entsprechend 24 in 24 Stunden, gefordert.
Als Hinweis auf einen möglichen paradoxen arrhythmogenen Effekt des Medikaments werteten wir eine Zunahme der Extrasystoliehäufigkeit gegenüber Placebo um wenigstens 150 %. Als Hinweis auf einen möglichen antiarrhythmischen Effekt werteten wir eine Abnahme der spontanen Extrasystoliehäufigkeit um wenigstens 60 %, als Hinweise auf einen wahrscheinlichen antiarrhythmischen Effekt eine Abnahme der Extrasystoliehäufigkeit um wenigstens 75 %.

[2] = tested on: Patienten mit Hyperlipoproteinämie; assay: 12-lead standard ECG: QT time and heart rate in verum and placebo phases of a controlled study; type: in vivo
Description: Je ein 12-Ableitungs-Standard-EKG wurde registriert. • 1. In der Placebophase • 2. In der Verumphase nach 12 Wochen • 3. In der Verumphase nach 24 Wochen • 4. In der Placebophase 42 Tage nach Absetzen von Probucol
Für jede der Aufzeichnungen wurde jeweils die frequenzkorrigierte QT-Zeit ermittelt (Bazett-Formula).
Unter Verwendung des Wilcoxon-Tests für verbundene Stichproben wurde geprüft, ob ein signifikanter Unterschied der QT-Dauer zwischen den Placebophasen und den Verumphasen besteht.

[3] = tested on: Patienten mit Hyperlipoproteinämie; conditions: in vivo
Description: Bei 42 Patienten mit Hyperlipoproteinämie wurde im Rahmen einer kontrollierten Studie die Wirkung von Probucol gegen Placebo geprüft.

[4] = number out of 17 patients with more than 1 VES/h under placebo

## CC(C)(Sc1cc(C(C)(C)C)c(O)c(C(C)(C)C)c1)Sc1cc(C(C)(C)C)c(O)c(C(C)(C)C)c1 [Probucol]
[1]; further patients out of the 8 with more than 15 VES/h spontaneous frequency
  Patienten mit Abnahme der Extrasystolie um wenigstens 60 %: Drei
[1]; in the 3 patients with paradoxical arrhythmogenic effect
  komplexe tachykarde ventrikuläre Rhythmusstörungen unter Therapie: Bei keinem der 3 Patienten
[1]; in vivo
  Patienten mit signifikanter Zunahme der spontanen Arrhythmiehäufigkeit unter Probucol (paradoxe arrhythmogene Wirkung): 3
  ventrikulärer Bigeminus: bei einem Patienten unter Verum, jedoch nicht unter Placebo
[1]; individual values of the 8 patients with more than 15 VES/h spontaneous frequency
  Abnahme der Extrasystoliefrequenz: 60% and 66% and 69% and 89% and 90% and 94% and 95% and 100%
[1]; number out of 8 patients with more than 15 VES/h spontaneous frequency
  Patienten mit statistisch signifikanter Abnahme der Extrasystoliefrequenz um mehr als 75 %: 5
[1]; [4]
  Patienten mit Reduktion der Extrasystolen unter Therapie über 75 %: 7
  Patienten mit Reduktion der Extrasystolen zwischen 60 und 75 %: 3
[1]; share of the 17 patients with more than 1 VES/h under placebo, reduction of at least 60 %
  Patienten mit Reduktion der spontanen Extrasystoliefrequenz, die auf eine antiarrhythmische Wirkung hinweist: 59%
[2]; 1000 mg daily, versus placebo
  Verlängerung der frequenzkontrollierten QT-Zeit: ca. 5%
[2]; mean, N 41, phase Verum-2
  Verum-2 F Mittelw.: 64,32
  Verum-2 QT Mittelw.: 0,40
[2]; mean, N 41, phase Verum-4
  Verum-4 F Mittelw.: 66,49
  Verum-4 QT Mittelw.: 0,38
[2]; therapy phase 1 or 2 versus placebo phase 1 or 2, p = 0.002, Wilcoxon test
  frequenzkorrigierte QT-Zeit unter Probucol im Vergleich zu den Placebophasen: signifikant verlängert
[3]
  Nebenwirkungen: gelegentlich Durchfall, Bauchschmerzen und Kopfschmerzen
